Patent publication US8889874B2, “Imidazolone-chalcone derivatives as potential anticancer agent and process for the preparation thereof” (Council of Scientific and Industrial Research, priority 2010, dated 2014)
Where two headings read alike, the source gives them in different places.

Assays:
Format in all cases: cell-based, human
[1] = test system: Colon cancer cell lines; experiment: NCI anticancer screen, SRB assay, panel summary; conditions: for GI50: Homo sapiens
Description: (§1) Some of biological activity studies were carried out at the National Cancer Institute (NCI), Maryland, USA.
(§2) The compounds were evaluated for anticancer activity against fifty three human cancer cells derived from nine cancer types (leukemia cell line, non-small-cell lung cell line, colon cell line, CNS cell line, melanoma cell line, ovarian cell line, prostate cell line, and breast cancer cell line) as shown in Table 1. For each compound, dose response curves for each cell line were measured at a minimum of five concentrations at 10 fold dilutions. A protocol of 48 h continuous drug exposure was used and a sulforhodamine B (SRB) protein assay was used to estimate cell viability or growth.

[2] = test system: CNS cancer cell lines; experiment: NCI anticancer screen, SRB assay, panel summary; conditions: for GI50: Homo sapiens
Description: as §1, §2

[3] = test system: Non-small cell lung cancer cell lines; experiment: NCI anticancer screen, SRB assay, panel summary; conditions: Homo sapiens
Description: as §1, §2

[4] = test system: Prostate cancer cell lines; experiment: NCI anticancer screen, SRB assay, panel summary
Description: as §1, §2

[5] = test system: Leukemia cancer cell lines; experiment: NCI anticancer screen, SRB assay, panel summary; conditions: Homo sapiens
Description: as §1, §2

[6] = test system: Melanoma cancer cell lines; experiment: NCI anticancer screen, SRB assay, panel summary; conditions: for GI50: Homo sapiens
Description: as §1, §2

[7] = test system: Renal cancer cell lines; experiment: NCI anticancer screen, SRB assay, panel summary; conditions: Homo sapiens
Description: as §1, §2

[8] = test system: Ovarian cancer cell lines; experiment: NCI anticancer screen, SRB assay, panel summary; conditions: Homo sapiens
Description: as §1, §2

[9] = test system: Breast cancer cell lines; experiment: NCI anticancer screen, SRB assay, panel summary; conditions: Homo sapiens
Description: as §1, §2

[10] = test system: NCI-H522 (non-small cell lung); experiment: NCI anticancer screen, SRB assay, 48 h; conditions: Homo sapiens
Description: as §1, §2

[11] = test system: SK-MEL-5 (melanoma); experiment: NCI anticancer screen, SRB assay, 48 h; conditions: Homo sapiens
Description: as §1, §2

[12] = test system: BT-549 (breast); experiment: NCI anticancer screen, SRB assay, 48 h; conditions: Homo sapiens
Description: as §1, §2

[13] = test system: MDA-MB-435 (melanoma); experiment: NCI anticancer screen, SRB assay, 48 h; conditions: Homo sapiens
Description: as §1, §2

[14] = test system: HCT-15 (colon); experiment: NCI anticancer screen, SRB assay, 48 h; conditions: Homo sapiens
Description: as §1, §2

[15] = test system: PC-3 (prostate); experiment: NCI anticancer screen, SRB assay, 48 h; conditions: Homo sapiens
Description: as §1, §2

[16] = test system: TD-47D (breast); experiment: NCI anticancer screen, SRB assay, 48 h; conditions: Homo sapiens
Description: as §1, §2

[17] = test system: KM12 (colon); experiment: NCI anticancer screen, SRB assay, 48 h; conditions: Homo sapiens
Description: as §1, §2

[18] = test system: SF-539 (CNS); experiment: NCI anticancer screen, SRB assay, 48 h; conditions: Homo sapiens
Description: as §1, §2

[19] = test system: OVCAR-5 (ovarian); experiment: NCI anticancer screen, SRB assay, 48 h; conditions: Homo sapiens
Description: as §1, §2

[20] = test system: UO-31 (renal); experiment: NCI anticancer screen, SRB assay, 48 h; conditions: Homo sapiens
Description: as §1, §2

[21] = test system: TK-10 (renal); experiment: NCI anticancer screen, SRB assay, 48 h; conditions: Homo sapiens
Description: as §1, §2

[22] = test system: A549/ATCC (non-small cell lung); experiment: NCI anticancer screen, SRB assay, 48 h; conditions: Homo sapiens
Description: as §1, §2

[23] = test system: CAKI-1 (renal); experiment: NCI anticancer screen, SRB assay, 48 h; conditions: Homo sapiens
Description: as §1, §2

[24] = test system: NCI-H322M (non-small cell lung); experiment: NCI anticancer screen, SRB assay, 48 h; conditions: Homo sapiens
Description: as §1, §2

[25] = test system: COLO 205 (colon); experiment: NCI anticancer screen, SRB assay, 48 h; conditions: Homo sapiens, COLO 205
Description: as §1, §2

[26] = test system: EKVX (non-small cell lung); experiment: NCI anticancer screen, SRB assay, 48 h; conditions: Homo sapiens
Description: as §1, §2

[27] = test system: SK-MEL-2 (melanoma); experiment: NCI anticancer screen, SRB assay, 48 h; conditions: Homo sapiens
Description: as §1, §2

[28] = test system: NCI-H23 (non-small cell lung); experiment: NCI anticancer screen, SRB assay, 48 h; conditions: Homo sapiens
Description: as §1, §2

[29] = test system: HCC-2998 (colon); experiment: NCI anticancer screen, SRB assay, 48 h; conditions: Homo sapiens
Description: as §1, §2

[30] = test system: OVCAR-3 (ovarian); experiment: NCI anticancer screen, SRB assay, 48 h; conditions: Homo sapiens
Description: as §1, §2

[31] = test system: SN12C (renal); experiment: NCI anticancer screen, SRB assay, 48 h; conditions: Homo sapiens, SN12C
Description: as §1, §2

[32] = test system: A498 (renal); experiment: NCI anticancer screen, SRB assay, 48 h; conditions: Homo sapiens
Description: as §1, §2

[33] = 48 h exposure, SRB, read-out: GI50
[34] = read-out: pGI50 (-log of molar concentration causing 50% inhibition of net cell growth) (converted)

## COc1cc(/C=C/C(=O)c2cccc(-n3cc(-c4cc(OC)c(OC)c(OC)c4)[nH]c3=O)c2)cc(OC)c1OC [5d, 4-(3,4,5-trimethoxyphenyl)-1-3-[(E)-3-(3,4,5-trimethoxyphenyl)-2-propenoyl]phenyl-2,3-dihydro-1H-2-imidazolone]
[1]; Colon panel, log of concentration leading to 50% net cell death
  mean graph midpoint (MG_MID) of Log10 LC50: 4.19
[1]; Colon panel, log of concentration in mol/L causing 50% inhibition of net cell growth, read-out: mean graph midpoint (MG_MID) of Log10 GI50 (converted)
  GI50: 1.91 µM
[1]; seven colon cancer cell lines, exposure at least 48 hrs, read-out: GI50, range over the panel
  GI50: 0.74 to 1.92 µM
[2]; CNS panel, log of concentration leading to 50% net cell death
  mean graph midpoint (MG_MID) of Log10 LC50: 4.29
[2]; CNS panel, log of concentration in mol/L causing 50% inhibition of net cell growth, read-out: mean graph midpoint (MG_MID) of Log10 GI50 (converted)
  GI50: 3.09 µM
[2]; six CNS cancer cell lines, exposure at least 48 hrs, read-out: GI50, range over the panel
  GI50: 1.23 to 4.96 µM
[3]; Non-small cell lung panel, log of concentration in mol/L causing 50% inhibition of net cell growth, read-out: mean graph midpoint (MG_MID) of Log10 GI50 (converted)
  GI50: 13.8 µM
[3]; nine non-small cell lung cancer cell lines, exposure at least 48 hrs, read-out: GI50, range over the panel
  GI50: 1.05 to 14.4 µM
[4]; Homo sapiens, log of concentration in mol/L causing 50% inhibition of net cell growth, read-out: mean graph midpoint (MG_MID) of Log10 GI50 (converted)
  GI50: 2.63 µM
[4]; Homo sapiens, log of concentration leading to 50% net cell death, read-out: mean graph midpoint (MG_MID) of Log10 LC50 (converted)
  LC50: ≥ 100 µM
[4]; log of concentration resulting in total inhibition of net cell growth
  mean graph midpoint (MG_MID) of Log10 TGI: 4.73
[5]; Leukemia panel, log of concentration in mol/L causing 50% inhibition of net cell growth, read-out: mean graph midpoint (MG_MID) of Log10 GI50 (converted)
  GI50: 0.38 µM
[5]; Leukemia panel, log of concentration leading to 50% net cell death, read-out: mean graph midpoint (MG_MID) of Log10 LC50 (converted)
  LC50: ≥ 100 µM
[5]; two leukemia cancer cell lines (RPMI-8226 and K-562), exposure at least 48 hrs, read-out: GI50, range over the panel
  GI50: 0.23 to 0.59 µM
[6]; Melanoma panel, log of concentration in mol/L causing 50% inhibition of net cell growth, read-out: mean graph midpoint (MG_MID) of Log10 GI50 (converted)
  GI50: 2.04 µM
[6]; nine melanoma cancer cell lines, exposure at least 48 hrs, read-out: GI50, range over the panel
  GI50: 1.23 to 3.02 µM
[6]; Melanoma panel, log of concentration leading to 50% net cell death
  mean graph midpoint (MG_MID) of Log10 LC50: 4.67
[7]; Renal panel, log of concentration in mol/L causing 50% inhibition of net cell growth, read-out: mean graph midpoint (MG_MID) of Log10 GI50 (converted)
  GI50: 2.63 µM
[7]; Renal panel, log of concentration leading to 50% net cell death, read-out: mean graph midpoint (MG_MID) of Log10 LC50 (converted)
  LC50: 27.5 µM
[7]; eight renal cancer cell lines, exposure at least 48 hrs, read-out: GI50, range over the panel
  GI50: 0.96 to 20.3 µM
[8]; Ovarian panel, log of concentration in mol/L causing 50% inhibition of net cell growth, read-out: mean graph midpoint (MG_MID) of Log10 GI50 (converted)
  GI50: 2.95 µM
[8]; Ovarian panel, log of concentration leading to 50% net cell death, read-out: mean graph midpoint (MG_MID) of Log10 LC50 (converted)
  LC50: 75.9 µM
[8]; six ovarian cancer cell lines, exposure at least 48 hrs, read-out: GI50, range over the panel
  GI50: 1.48 to 5.12 µM
[9]; Breast panel, log of concentration in mol/L causing 50% inhibition of net cell growth, read-out: mean graph midpoint (MG_MID) of Log10 GI50 (converted)
  GI50: 3.98 µM
[9]; Breast panel, log of concentration leading to 50% net cell death, read-out: mean graph midpoint (MG_MID) of Log10 LC50 (converted)
  LC50: 45.7 µM
[9]; five breast cancer cell lines, exposure at least 48 hrs, read-out: GI50, range over the panel
  GI50: 0.47 to 4.19 µM
[10]; [33]
  GI50: 1.05 µM
[10]; [34]
  GI50: 1.05 µM
[11]; [33]
  GI50: 2.76 µM
[11]; [34]
  GI50: 2.75 µM
[12]; [33]
  GI50: 1.52 µM
[12]; [34]
  GI50: 1.51 µM
[13]; [33]
  GI50: 2.11 µM
[13]; [34]
  GI50: 2.09 µM
[14]; [33]
  GI50: 1.89 µM
[14]; [34]
  GI50: 1.91 µM
[15]; PC-3, read-out: pGI50 (-log of molar concentration causing 50% inhibition of net cell growth) (converted)
  GI50: 2.63 µM
[15]; one prostate cancer cell line (PC-3), exposure at least 48 hrs, read-out: GI50
  GI50: 2.63 µM
[16]; [33]
  GI50: 3.08 µM
[16]; [34]
  GI50: 3.09 µM
[17]; [33]
  GI50: 1.12 µM
[17]; [34]
  GI50: 1.12 µM
[18]; [33]
  GI50: 3.12 µM
[18]; [34]
  GI50: 3.09 µM
[19]; [33]
  GI50: 4.38 µM
[19]; [34]
  GI50: 4.37 µM
[20]; [33]
  GI50: 0.96 µM
[20]; [34]
  GI50: 0.955 µM
[21]; [33]
  GI50: 3 µM
[21]; [34]
  GI50: 3.02 µM
[22]; [33]
  GI50: 3.03 µM
[22]; [34]
  GI50: 3.02 µM
[23]; [33]
  GI50: 2.89 µM
[23]; [34]
  GI50: 2.88 µM
[24]; [33]
  GI50: 3.61 µM
[24]; [34]
  GI50: 3.63 µM
[25]; COLO205, read-out: pGI50 (-log of molar concentration causing 50% inhibition of net cell growth) (converted)
  GI50: 1.51 µM
[25]; [33]
  GI50: 1.52 µM
[26]; [33]
  GI50: 9.47 µM
[26]; [34]
  GI50: 9.55 µM
[27]; [33]
  GI50: 3.02 µM
[27]; [34]
  GI50: 3.02 µM
[28]; [33]
  GI50: 2 µM
[28]; [34]
  GI50: 2 µM
[29]; [33]
  GI50: 1.92 µM
[29]; [34]
  GI50: 1.91 µM
[30]; [33]
  GI50: 1.48 µM
[30]; [34]
  GI50: 1.48 µM
[31]; SN 12C, read-out: pGI50 (-log of molar concentration causing 50% inhibition of net cell growth) (converted)
  GI50: 2.75 µM
[31]; [33]
  GI50: 2.75 µM
[32]; [33]
  GI50: 20.3 µM
[32]; [34]
  GI50: 20.4 µM
